A short description of this series: Human HepG2 cell viability assay in 384 well format. Set-up: dose 125 nL, time 70.5 hour; concentration not given beside the values. The note with it: HepG2 cells, read-out: Inhibition. It is filed as toxicity, cell-based.
Take `NC(=O)COc1ccc(CN2CC[C@@]3(O)CCCC[C@H]3C2)cc1Cl`: the cytotoxicity at 70.5 h was -2.71%. Take `c1cc(C2CCN(Cc3ccc4c(c3)OCO4)CC2)ccn1`: the cytotoxicity at 70.5 h is -2.31%.

As for `Cc1nnc(N2CCCC(C(=O)c3cccc(Cl)c3)C2)o1` (configuration not stated), the cytotoxicity at 70.5 h was -3.19%. With `O=C1OCCN1CC(=O)N1C[C@H]2CC[C@@H]1CN(C(=O)c1cccnc1)C2`, the cytotoxicity at 70.5 h was -2.17%. Turning to `CCn1ccnc1C1CCCN(c2nccc3ccccc23)C1` (configuration not stated), the cytotoxicity at 70.5 h was -8.19%. In the case of `Cc1nc(C2CCCNC2)cc(N(Cc2nccn2C)C2CC2)n1` (configuration not stated), the cytotoxicity at 70.5 h is 7.52%. For the compound `CCn1ccnc1CN(C)C(C(=O)O)c1ccc(C(C)(C)C#N)cc1` (configuration not stated), the cytotoxicity at 70.5 h is -4.97%. As to `CCN(CC)c1ncccc1CNC(=O)c1cc2nc(C)cc(C)n2n1`, the cytotoxicity at 70.5 h was -0.33%.

On to `Cc1nccn1CCC1CCCCN1Cc1ccc2c(c1)OCCO2` (configuration not stated), for which the cytotoxicity at 70.5 h was 14.5%.

With `O=C(CCc1cc2n(n1)CCCNC2)N1CCN(C2CCCC2)C(=O)C1`, the cytotoxicity at 70.5 h is -7.76%. In the case of `Cc1ccc(CN2CCNC(=O)C2CC(=O)NCc2n[nH]c(C)n2)cc1` (configuration not stated), the cytotoxicity at 70.5 h was -3.13%. In the case of `CCCN(CCC)C(=O)c1cc(CN2CCC(O)CC2)on1`, the cytotoxicity at 70.5 h is -6.98%. On to `Cc1cc(N[C@H]2CCCN(Cc3ccccc3)C2)n2nc(C)cc2n1`, for which the cytotoxicity at 70.5 h came out at 1.66%. Consider `Cc1cc(C)c(C(=O)N[C@H](C(N)=O)c2ccccc2)c(=O)[nH]1`, for which the cytotoxicity at 70.5 h turned out to be 12.8%.

On to `Cc1noc(C)c1CN1CCCCC1CCc1ccc(O)cc1` (configuration not stated), for which the cytotoxicity at 70.5 h is -1.36%.

In the case of `CSc1nc(N)cc(N2C[C@@H]3CC[C@H](C2)N(CC2CC2)C3=O)n1`, the cytotoxicity at 70.5 h came to 3.27%. As to `Cc1ccc(CN2CC[C@@H](NC(=O)c3cccnc3)[C@H](O)C2)o1`, the cytotoxicity at 70.5 h was -13.3%. In the case of `COc1nccnc1N1CCN(Cc2ccc(F)cc2)C(=O)C1` it was 24.6%. As to `Cc1cc(-c2nn(C)c(Cl)c2CN2CC[C@@](O)(C3CCC3)[C@H](C)C2)no1`, the cytotoxicity at 70.5 h was determined as 0.567%. In the case of `CC(C)NC(=O)N1CCC(c2nccn2C(C)C)CC1`, the cytotoxicity at 70.5 h was -3.22%. `O=C(NC1CCCCC1)N1CCC(N2Cc3ncccc3C2=O)CC1`: the cytotoxicity at 70.5 h is -13.7%.

Consider `Cc1nccc(N2CC[C@@H]3[C@@H](CCC(=O)N3CCc3ccccc3)C2)n1`, for which the cytotoxicity at 70.5 h is -6.49%. With `Cc1ocnc1C(=O)N1CCCC1c1ccc(C(=O)N2CCSCC2)s1` (configuration not stated), the cytotoxicity at 70.5 h was -7.81%.

In the case of `COc1ccc(OCc2cc(C(=O)N3CCSCC3)n[nH]2)c(Cl)c1`, the cytotoxicity at 70.5 h was -5.04%. Consider `COc1cc(N2C[C@@H](C)[C@](O)(C3CC3)C2)ncn1`, for which the cytotoxicity at 70.5 h was 5.18%. Take `COC(=O)c1cc(NC(=O)NCC2CCS(=O)(=O)C2)ccc1Cl` (configuration not stated): the cytotoxicity at 70.5 h was -0.58%. Regarding `CCc1ccc(CN(Cc2ccco2)C(C)C(C)C)nc1` (configuration not stated), the cytotoxicity at 70.5 h was 1.59%.

As for `COC(=O)[C@H]1C[C@@H](O)CCN1S(=O)(=O)c1cc(Cl)ccc1OC`, the cytotoxicity at 70.5 h is -11.2%. In the case of `COc1cc(F)c(C(=O)NCc2ccon2)c(F)c1` it was -3.42%. On to `O=C(c1cn(-c2ccccc2)nn1)N1CCOCC(O)C1` (configuration not stated), for which the cytotoxicity at 70.5 h was found to be 15.7%. In the case of `Cc1nc(-c2ccccc2)c(C(=O)N2CCC3(CC(=O)NC3=O)C2)s1` (configuration not stated) it was -6.69%; in that of `Cc1ccsc1[C@@H]1CCN(C(=O)CCC(=O)c2ccccc2)C[C@H]1O`, -9.94%; in that of `CN(CCc1cnn(C)c1)C(=O)C(c1ccccc1F)N(C)C` (configuration not stated), 0.281%. In the case of `CN(C)[C@@H]1C[C@@H](CO)N(C(=O)Nc2ccc(SC(F)(F)F)cc2)C1`, the cytotoxicity at 70.5 h was 4.27%. As for `CS(=O)(=O)NCC(=O)N[C@H]1CN(c2cnccn2)C[C@@H]1C1CC1`, the cytotoxicity at 70.5 h was 9.56%. Regarding `Cc1cc(C(=O)NCc2cccnc2N2CCc3ccccc3C2)[nH]n1`, the cytotoxicity at 70.5 h is -3.47%. On to `CCc1ncc2c(n1)CN(c1nc(C)ccc1C(=O)O)C2`, for which the cytotoxicity at 70.5 h was -10.8%.

With `O=C(c1ccc(=O)[nH]c1)N1C[C@@H]2CC[C@H](C1)N(Cc1ccccc1)C2`, the cytotoxicity at 70.5 h was -8.28%. In the case of `CC(C)[C@H](C)NC1CCN(c2ccc(-c3cscn3)cc2)CC1` it was -14.3%; in that of `Cc1nc(N(C)CCCc2nccn2C)c2c(C)nn(C)c2n1`, -6.47%. Consider `O=C(NCc1cccnc1)C1CN(c2cnc3ccccc3n2)CCN1` (configuration not stated), for which the cytotoxicity at 70.5 h came out at 19.1%. As for `CCc1ncc2c(n1)CN(C(=O)CNC(=O)c1ccccc1)C2`, the cytotoxicity at 70.5 h amounted to 25.5%.

In the case of `CCOCC1CCN(C(=O)C(c2cccc(F)c2)N(C)C)CC1` (configuration not stated), the cytotoxicity at 70.5 h is 27.9%.

Regarding `Cc1c(C(C)N)cnn1-c1ccccn1` (configuration not stated), the cytotoxicity at 70.5 h is -8.01%. For the compound `Nc1ccc(-c2ccc(F)cc2Cl)cn1`, the cytotoxicity at 70.5 h is -8.38%. Consider `COCCN(Cc1ccsc1)C(=O)c1c(C)cc(C)[nH]c1=O`, for which the cytotoxicity at 70.5 h is -1.09%. Regarding `COc1ccc(-n2c(SC)nc(O)c(Cc3ccccc3)c2=O)cc1`, the cytotoxicity at 70.5 h was -2.29%. With `CCNc1ncc(C(=O)NC(CC)c2ccnn2C)cn1` (configuration not stated), the cytotoxicity at 70.5 h is -5.36%. Take `COCc1noc(CN2C[C@H](C3CC3)[C@@H](N(C)C)C2)n1`: the cytotoxicity at 70.5 h is -8.41%. The same measure for `CCN(C)CC(=O)N1CCC(c2cc(N3CCOCC3)nc(C)n2)CC1`: -11.5%; for `COc1ccc(N2CCN(C(=O)CCn3nccc3C)C(C)C2)cc1` (configuration not stated): -3.13%. Consider `OCC1(O)CCCN(Cc2ccc(-c3cc[nH]n3)s2)CC1` (configuration not stated), for which the cytotoxicity at 70.5 h was -9.87%.

On to `Cn1ccnc1C1CCCN(C(=O)c2ccc3nccnc3c2)C1` (configuration not stated), for which the cytotoxicity at 70.5 h was 2.22%.

As for `Cc1ccn(-c2cncc(C(N)=O)c2)n1`, the cytotoxicity at 70.5 h is -14.4%. On to `CCOc1ccc2nc(CN3CCC(CN)C3)ccc2c1` (configuration not stated), for which the cytotoxicity at 70.5 h was -2.57%. As for `CN(Cc1cccc(O)c1)C(=O)c1ccc(CCC(C)(C)O)cc1`, the cytotoxicity at 70.5 h was 0.182%. Regarding `CC(=O)N1CCc2c(nc(-c3cccnc3)nc2N(C)CC(O)CO)C1` (configuration not stated), the cytotoxicity at 70.5 h is -6.57%.

Take `CN(C)CCn1ccnc1C1CCCN(c2nccc3ccccc23)C1` (configuration not stated): the cytotoxicity at 70.5 h amounted to 1.12%.

`CC(=O)N[C@@H]1CN(Cc2oc3ccccc3c2C)C[C@H]1c1ccc(C)o1`: the cytotoxicity at 70.5 h is -7.22%.

With `CCCN(Cc1ccccc1C)C(CC)CO` (configuration not stated), the cytotoxicity at 70.5 h was -7.79%. For `CO[C@@H]1c2ccccc2C2(CCN(C(=O)CNS(C)(=O)=O)CC2)[C@H]1O`, the cytotoxicity at 70.5 h was 23.4%. The same measure for `O=C(CC1COCCN1)NCCc1nc(-c2ccccn2)no1` (configuration not stated): -6.55%; for `COc1cc(F)c(C(=O)N2C[C@@H](CN(C)CCO)[C@@H](CO)C2)c(F)c1`: -2.86%; for `COc1ccc(Cc2c(O)nc(SC)n(-c3ccccc3)c2=O)cc1`: 12.6%. Turning to `CCOc1ccc(Cc2c(O)nc(SC)n(-c3ccccc3)c2=O)cc1`, the cytotoxicity at 70.5 h was -2.28%. `COc1cccc(OCc2cc(C(=O)N3CC(O)C3)n[nH]2)c1`: the cytotoxicity at 70.5 h was -2.2%. Turning to `CCCOc1ccc(C(=O)N[C@@H]2CCNC[C@H]2O)cc1Cl`, the cytotoxicity at 70.5 h stood at 2.76%. In the case of `COc1ccc(Cl)cc1C(C(=O)O)N(C)Cc1ccon1` (configuration not stated), the cytotoxicity at 70.5 h came out at 11.7%. In the case of `CCNC(=O)[C@@H]1C[C@H](N)CN1C(=O)Cc1cc(C)ccc1C` it was -12.9%; in that of `O=C(C1CCOC1)N1CCC(OCc2ccccc2)CC1` (configuration not stated), -5.49%. `CN1CCN(C(=O)c2ccc3c(c2)nc(N2CCOCC2)n3C)CC1=O`: the cytotoxicity at 70.5 h was -5.46%. As for `CC1=NN(CC(=O)N2CC[C@@H]3[C@@H](CCC(=O)N3CC(C)C)C2)CC1`, the cytotoxicity at 70.5 h is -1.09%.

Consider `O=C(c1cnc(O)cn1)N(Cc1ccsc1)CC1CCCO1` (configuration not stated), for which the cytotoxicity at 70.5 h was 25.2%.

As to `COc1cccc(OCC2CCCN(C(=O)c3ncoc3C3CC3)C2)c1` (configuration not stated), the cytotoxicity at 70.5 h was -11.7%.

Turning to `COc1ncc(-c2cc(-c3ccn(C)c3)nc(N)c2C#N)cn1`, the cytotoxicity at 70.5 h amounted to 7.14%.

For `CC(C)c1ccn(C2(C(=O)O)CCN(c3cc(C(N)=O)ccn3)CC2)n1`, the cytotoxicity at 70.5 h was -3.6%. On to `Cc1ccc2c(c1)c(CNC(=O)C1CCN(CC(N)=O)CC1)nn2C`, for which the cytotoxicity at 70.5 h was -2.32%.

On to `Cc1noc(C2CCCCN2C(=O)C2CCN(C(C)C)CC2)n1` (configuration not stated), for which the cytotoxicity at 70.5 h is 5.11%. For the compound `COCc1nc(CN2CC(=O)N(C)c3ccccc3C2=O)no1`, the cytotoxicity at 70.5 h is -5.63%. As to `COCCCC1CCCN(C(=O)CCc2csc(N)n2)C1` (configuration not stated), the cytotoxicity at 70.5 h was -11.8%. Take `Fc1cccc2ncnc(NCCCc3ccncc3)c12`: the cytotoxicity at 70.5 h was -4.44%. The same measure for `Cc1nn(C)c2ncnc(NCc3nncn3C3CCCCC3)c12`: -6.04%; for `O=C(c1ccco1)N1CCc2ncnc(NCc3ccccn3)c2CC1`: -8.48%. As for `O=C(NCc1csc(-c2cccs2)n1)C1NCCc2[nH]cnc21` (configuration not stated), the cytotoxicity at 70.5 h is -19.8%. Take `C=C(C)COc1cccc(CNCCc2c[nH]cn2)c1`: the cytotoxicity at 70.5 h was -6.28%. The same measure for `CCc1ccc2nc(C)cc(C(=O)NC[C@@H]3CCNC[C@H]3O)c2c1`: 14.5%; for `CC(C)n1cnnc1CN(C)C(=O)c1ccc[nH]1`: 18.8%. For `Cn1cnnc1CN1CCC2(CCCN(C3CCCCC3)C2=O)C1` (configuration not stated), the cytotoxicity at 70.5 h is -1.45%. In the case of `O=C(c1cc(=O)n(-c2ccccc2)[nH]1)N1CCCC(c2ccn[nH]2)C1` (configuration not stated), the cytotoxicity at 70.5 h came out at 48%. Turning to `CCC(C(=O)NCCc1nc(C)cc(C(F)(F)F)n1)n1cccn1` (configuration not stated), the cytotoxicity at 70.5 h was 20%. In the case of `COc1cccc2c1OCCCN(Cc1c[nH]nc1C(=O)O)C2`, the cytotoxicity at 70.5 h is -9%. For the compound `O=C(CCc1cc(Cl)no1)N1CCCCC1CCN1CCOCC1` (configuration not stated), the cytotoxicity at 70.5 h was -2.5%. In the case of `CC(=O)NCCC1CCCCN1S(=O)(=O)c1cccc(F)c1` (configuration not stated) it was 19.6%; in that of `Cc1ccnc(NCCNC(=O)C2CC3(CCNCC3)CN2C)c1` (configuration not stated), -3.92%; in that of `CCCc1nnc(N2CCN(C3CCCC3)CC2)o1`, -14.3%. In the case of `Cc1ccc(C(CNC(=O)c2cc(CC(C)C)nn2C)N(C)C)cc1` (configuration not stated), the cytotoxicity at 70.5 h was -3.96%. The same measure for `CC(=O)c1cc(CN2CCCC2c2nc3ccc(C)cc3[nH]2)cs1` (configuration not stated): -3.73%.

The record behind these values is ChEMBL document CHEMBL3507680, “University of Dundee, Gates Library screen for HepG2 cell viability”.
